In ChEMBL document CHEMBL1144323, “Reversal of anticancer drug resistance by COTC based on intracellular glutathione and glyoxalase I” (Bioorg Med Chem Lett, 2005) one finds Decrease and Ki data, which are given here for two compounds.

The species entered for one test is Homo sapiens. Briefly: Effect of COTC on GSH level in human pancreatic adenocarcinoma cell was determined at 30 ug/mL of COTC. The class given is functional.
A further test concerns the target Lactoylglutathione lyase (Homo sapiens, UniProt Q04760). Briefly: Inhibitory constant against Glyoxalase I.

Sequence of Lactoylglutathione lyase (Q04760 whole entry): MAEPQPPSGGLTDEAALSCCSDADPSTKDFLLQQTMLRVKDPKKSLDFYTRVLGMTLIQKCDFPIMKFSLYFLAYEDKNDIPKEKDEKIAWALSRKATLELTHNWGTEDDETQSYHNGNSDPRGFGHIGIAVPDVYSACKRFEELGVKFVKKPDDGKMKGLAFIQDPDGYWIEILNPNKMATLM

Regarding `C/C=C/C(=O)OCC1=C[C@@H](O)[C@@H](O)[C@@H](O)C1=O`, in the test listed under Homo sapiens, the Decrease was found to be 40%. On Lactoylglutathione lyase, `NC(CCC(=O)NC(CSCC1=C[C@@H](O)[C@@H](O)[C@@H](O)C1=O)C(=O)NCC(=O)O)C(=O)O` (some centres not stated) yielded a Ki of 183 µM.
